Data on 2 compounds can be found in ChEMBL document CHEMBL1127552, “Approaches toward selective inhibition of nitric oxide synthase” (J Med Chem, 1994).

For test [1], the target named is T1, Nitric oxide synthase, inducible (Mus musculus, UniProt P29477).
T1 sequence (P29477 whole entry): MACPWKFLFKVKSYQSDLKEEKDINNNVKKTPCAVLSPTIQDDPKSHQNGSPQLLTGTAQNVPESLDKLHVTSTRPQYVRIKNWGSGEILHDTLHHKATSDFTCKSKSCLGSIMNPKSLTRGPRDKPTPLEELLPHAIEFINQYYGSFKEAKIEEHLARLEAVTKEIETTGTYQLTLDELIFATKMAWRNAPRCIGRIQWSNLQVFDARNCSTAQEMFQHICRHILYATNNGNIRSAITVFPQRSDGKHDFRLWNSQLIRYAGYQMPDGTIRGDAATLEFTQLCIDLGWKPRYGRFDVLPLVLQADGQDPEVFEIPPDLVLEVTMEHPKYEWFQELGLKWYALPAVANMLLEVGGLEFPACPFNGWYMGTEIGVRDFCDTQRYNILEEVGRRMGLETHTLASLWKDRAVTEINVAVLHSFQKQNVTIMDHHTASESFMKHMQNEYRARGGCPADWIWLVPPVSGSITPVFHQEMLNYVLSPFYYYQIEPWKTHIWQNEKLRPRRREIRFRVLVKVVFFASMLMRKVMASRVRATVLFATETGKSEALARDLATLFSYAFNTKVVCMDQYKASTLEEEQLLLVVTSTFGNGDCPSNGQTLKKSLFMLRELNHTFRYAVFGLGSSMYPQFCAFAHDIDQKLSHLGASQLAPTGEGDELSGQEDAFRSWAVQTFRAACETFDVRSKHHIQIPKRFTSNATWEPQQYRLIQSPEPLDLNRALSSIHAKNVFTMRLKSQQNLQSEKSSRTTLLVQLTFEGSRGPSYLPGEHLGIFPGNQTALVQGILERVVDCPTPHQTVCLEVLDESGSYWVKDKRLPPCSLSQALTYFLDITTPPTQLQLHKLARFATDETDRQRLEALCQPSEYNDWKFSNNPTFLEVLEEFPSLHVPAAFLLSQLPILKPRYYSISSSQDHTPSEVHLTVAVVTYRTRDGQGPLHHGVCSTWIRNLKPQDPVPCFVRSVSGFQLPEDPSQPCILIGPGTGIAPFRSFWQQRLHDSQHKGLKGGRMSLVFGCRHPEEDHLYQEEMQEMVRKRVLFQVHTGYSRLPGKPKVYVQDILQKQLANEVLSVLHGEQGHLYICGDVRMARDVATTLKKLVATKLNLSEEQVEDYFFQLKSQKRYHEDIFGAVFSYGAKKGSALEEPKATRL
The test is described as follows: Compound was tested for its inhibitory activity against macrophage NO2- synthesis.

Test [2] concerns the target T2, Nitric oxide synthase 3 (Bos taurus, UniProt P29473).
T2 sequence (P29473 whole entry): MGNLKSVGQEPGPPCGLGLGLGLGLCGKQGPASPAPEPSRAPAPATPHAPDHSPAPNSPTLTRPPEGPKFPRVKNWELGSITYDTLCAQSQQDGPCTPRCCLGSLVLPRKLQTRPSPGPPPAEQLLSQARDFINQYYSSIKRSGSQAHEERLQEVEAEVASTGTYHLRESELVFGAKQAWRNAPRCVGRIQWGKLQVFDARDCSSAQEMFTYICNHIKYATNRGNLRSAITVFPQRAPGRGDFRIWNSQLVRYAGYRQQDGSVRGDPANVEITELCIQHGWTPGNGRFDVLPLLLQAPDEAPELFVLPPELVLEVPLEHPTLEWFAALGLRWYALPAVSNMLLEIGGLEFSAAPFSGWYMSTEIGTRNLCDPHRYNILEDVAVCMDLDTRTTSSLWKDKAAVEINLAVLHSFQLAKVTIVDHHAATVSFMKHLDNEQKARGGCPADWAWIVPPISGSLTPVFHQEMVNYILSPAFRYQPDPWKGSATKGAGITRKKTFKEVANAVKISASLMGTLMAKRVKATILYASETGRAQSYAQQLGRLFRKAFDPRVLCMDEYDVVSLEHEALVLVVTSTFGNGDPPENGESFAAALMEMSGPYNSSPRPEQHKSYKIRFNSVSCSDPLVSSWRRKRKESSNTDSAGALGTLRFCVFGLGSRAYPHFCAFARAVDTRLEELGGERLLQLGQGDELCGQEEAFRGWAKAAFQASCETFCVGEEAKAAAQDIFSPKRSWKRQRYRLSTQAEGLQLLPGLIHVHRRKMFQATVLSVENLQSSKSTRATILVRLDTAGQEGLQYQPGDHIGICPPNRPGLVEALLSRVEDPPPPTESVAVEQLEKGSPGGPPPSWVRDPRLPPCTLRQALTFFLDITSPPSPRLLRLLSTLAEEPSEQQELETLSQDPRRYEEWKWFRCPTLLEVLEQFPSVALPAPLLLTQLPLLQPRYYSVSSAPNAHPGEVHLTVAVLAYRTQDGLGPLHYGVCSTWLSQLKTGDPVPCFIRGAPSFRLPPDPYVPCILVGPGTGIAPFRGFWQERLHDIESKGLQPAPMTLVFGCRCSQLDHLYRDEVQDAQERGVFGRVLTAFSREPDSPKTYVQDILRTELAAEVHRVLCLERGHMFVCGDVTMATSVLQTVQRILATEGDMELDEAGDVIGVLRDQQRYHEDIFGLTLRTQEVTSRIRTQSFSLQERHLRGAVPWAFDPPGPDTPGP
In words: Compound was tested for its inhibitory activity against endothelial NO2- synthesis.

By IC50 is commonly meant the point on the concentration scale where inhibition reaches its midpoint. A lower IC50 goes with higher potency. `CNC(N)NCCCC(N)C(=O)O` (configuration not stated) displayed an IC50 in test [1] of 60 µM. In other words, the double-digit micromolar range.
Take `COC(=O)[C@@H](N)CCCNC(=N)N[N+](=O)[O-]` [L-NAME]: the IC50 in test [2] was determined as 100 µM.
